Measured values as given in PMC10584882 (Communications Biology, 2023).
“And” between values parts separate entries of the source, which are not always exact repeats. Equal entries are not always repeated. “Also recorded” adds a separate entry of the source.

Key:
[1] = S-Calpeptin toxicity experiment in Golden Syrian hamsters (weight, blood cell count, histopathology); format: in vivo, Golden Syrian hamsters (Mesocricetus auratus); set-up: leukocytes / neutrophils / lymphocytes / monocytes: unit not given here; conditions: for leukocytes / lymphocytes / monocytes / neutrophils: blood cell count
[2] = Anti-viral experiment with Golden Syrian hamsters: body weight; format: in vivo, Golden Syrian hamsters (Mesocricetus auratus); conditions: for body weight, individual data: individual animals
[3] = 1 mg/kg S-Calpeptin, individual animals 1-3, 1 mg/kg
[4] = 2 mg/kg S-Calpeptin, individual animals 7-9, 2 mg/kg
[5] = 3 mg/kg S-Calpeptin, individual animals 10-12, 3 mg/kg

Compound: CCCC[C@H](NC(=O)[C@H](CC(C)C)NC(=O)OCc1ccccc1)C(O)S(=O)(=O)[O-].[Na+] (stereo partly shown) [S-Calpeptin]
- body weight, summarized data, average ([1]; 1 mg/kg S-Calpeptin, day 0, relative to day 0): 100%
- body weight, summarized data, average ([1]; 1 mg/kg S-Calpeptin, day 1, relative to day 0): 100.862%
- body weight, individual data ([1]; 1 mg/kg S-Calpeptin, day 2, individual animals A1-A3): 124 g
- body weight, summarized data, average ([1]; 1 mg/kg S-Calpeptin, day 2, relative to day 0): 100.893%
- body weight, summarized data, average ([1]; 1 mg/kg S-Calpeptin, day 3, relative to day 0): 100.862%
- body weight, summarized data, average ([1]; 1 mg/kg S-Calpeptin, day 4, relative to day 0): 101.724%
- body weight, summarized data, average ([1]; 1 mg/kg S-Calpeptin, day 5, relative to day 0): 102.852%
- body weight, summarized data, average ([1]; 1 mg/kg S-Calpeptin, day 6, relative to day 0): 102.288%
- body weight, summarized data, average ([1]; 2 mg/kg S-Calpeptin, day 0, relative to day 0): 100%
- body weight, summarized data, average ([1]; 2 mg/kg S-Calpeptin, day 1, relative to day 0): 100.285%
- body weight, summarized data, average ([1]; 2 mg/kg S-Calpeptin, day 2, relative to day 0): 100.287%
- body weight, individual data ([1]; 2 mg/kg S-Calpeptin, day 3, individual animals A7-A9): 120 g
- body weight, summarized data, average ([1]; 2 mg/kg S-Calpeptin, day 3, relative to day 0): 101.388%
- body weight, summarized data, average ([1]; 2 mg/kg S-Calpeptin, day 4, relative to day 0): 100.836%
- body weight, summarized data, average ([1]; 2 mg/kg S-Calpeptin, day 5, relative to day 0): 101.368%
- body weight, individual data ([1]; 2 mg/kg S-Calpeptin, day 6, individual animals A7-A9): 120 g
- body weight, summarized data, average ([1]; 2 mg/kg S-Calpeptin, day 6, relative to day 0): 101.919%
- body weight, individual data ([1]; 3 mg/kg S-Calpeptin, day 0, individual animals A10-A12): 124 g and 135 g
- body weight, summarized data, average ([1]; 3 mg/kg S-Calpeptin, day 0, relative to day 0): 100%
- body weight, individual data ([1]; 3 mg/kg S-Calpeptin, day 1, individual animals A10-A12): 124 g and 135 g
- body weight, summarized data, average ([1]; 3 mg/kg S-Calpeptin, day 1, relative to day 0): 100.275%
- body weight, individual data ([1]; 3 mg/kg S-Calpeptin, day 2, individual animals A10-A12): 124 g and 135 g
- body weight, summarized data, average ([1]; 3 mg/kg S-Calpeptin, day 2, relative to day 0): 100.275%
- body weight, summarized data, average ([1]; 3 mg/kg S-Calpeptin, day 3, relative to day 0): 101.582%
- body weight, summarized data, average ([1]; 3 mg/kg S-Calpeptin, day 4, relative to day 0): 102.133%
- body weight, summarized data, average ([1]; 3 mg/kg S-Calpeptin, day 5, relative to day 0): 102.402%
- body weight, summarized data, average ([1]; 3 mg/kg S-Calpeptin, day 6, relative to day 0): 102.671%
- leukocytes [1, 3]: 4150 and 4010 and 4200
- lymphocytes [1, 3]: 2407 and 2366 and 2310
- monocytes [1, 3]: 581 and 521 and 798
- neutrophils [1, 3]: 1079 and 1083 and 924
- leukocytes [1, 4]: 1780 and 2200 and 1620
- lymphocytes [1, 4]: 1104 and 748 and 486
- monocytes [1, 4]: 214 and 352 and 680
- neutrophils [1, 4]: 427 and 1056 and 389
- leukocytes [1, 5]: 3000 and 1360 and 2190
- lymphocytes [1, 5]: 1860 and 653 and 1270
- monocytes [1, 5]: 450 and 163 and 350
- neutrophils [1, 5]: 630 and 517 and 569
- blood cell count finding (in words) ([1]; hamsters, 2 mg/kg or 3 mg/kg s.c. daily, end of seven-days protocol): marked leukopenia; also recorded: blood leukopenia
- acute toxicity-related clinical signs or weight loss (in words) ([1]; hamsters, 1, 2 or 3 mg/kg s.c. daily): no signs of acute toxicity; also recorded: did not display acute toxicity-related clinical signs
- side effects (in words) ([1]; hamsters, daily dose of 1 mg/kg s.c. over seven days): no apparent side effects
- body weight, individual data ([2]; G1 SARS-CoV-2 infected, 1 mg/kg s.c. daily, Day 1, 1 mg/kg): 142 g and 136 g and 131 g and 130 g and 132 g and 133 g and 125 g and 128 g and 123 g and 114 g and 117 g and 111 g
- body weight, individual data ([2]; G1 SARS-CoV-2 infected, 1 mg/kg s.c. daily, Day 2, 1 mg/kg): 139 g and 141 g and 136 g and 131 g and 128 g and 132 g and 123 g and 127 g and 120 g and 111 g and 116 g and 108 g
- body weight, individual data ([2]; G1 SARS-CoV-2 infected, 1 mg/kg s.c. daily, Day 3, 1 mg/kg): 138 g and 133 g and 132 g and 125 g and 128 g and 131 g and 123 g and 122 g and 126 g and 118 g and 121 g and 111 g and 115 g and 106 g
- body weight, individual data ([2]; G1 SARS-CoV-2 infected, 1 mg/kg s.c. daily, Day 4, 1 mg/kg): 126 g and 130 g and 121 g and 120 g and 118 g and 123 g and 111 g and 116 g and 104 g
- body weight, individual data ([2]; G1 SARS-CoV-2 infected, 1 mg/kg s.c. daily, Day 5, 1 mg/kg): 126 g and 129 g and 121 g and 119 g and 118 g and 111 g and 117 g and 104 g
- body weight, individual data ([2]; G1 SARS-CoV-2 infected, 1 mg/kg s.c. daily, Day 6, 1 mg/kg): 115 g and 118 g and 111 g and 116 g and 105 g
- body weight, individual data ([2]; G1 SARS-CoV-2 infected, 1 mg/kg s.c. daily, Day 7, 1 mg/kg): 117 g and 121 g and 112 g and 118 g and 106 g
- body weight, individual data ([2]; G4 mock infected (so in the source), Day 1): 155 g and 138 g and 130 g
- body weight, individual data ([2]; G4 mock infected (so in the source), Day 2): 156 g and 137 g and 130 g
- body weight, individual data ([2]; G4 mock infected (so in the source), Day 3): 157 g and 138 g and 131 g
- body weight, individual data ([2]; G4 mock infected (so in the source), Day 4): 158 g and 140 g and 130 g
- body weight, individual data ([2]; G4 mock infected (so in the source), Day 5): 159 g and 139 g and 131 g
- body weight, individual data ([2]; G4 mock infected (so in the source), Day 6): 160 g and 139 g and 130 g
- body weight, individual data ([2]; G4 mock infected (so in the source), Day 7): 162 g and 141 g and 131 g
- body weight, average ([2]; SARS-CoV-2 infected hamsters, 1 mg/kg s.c. daily, day 1): 96.7382 %, relative to day 0
- body weight, average ([2]; SARS-CoV-2 infected hamsters, 1 mg/kg s.c. daily, day 2): 95.2969 %, relative to day 0
- body weight, average ([2]; SARS-CoV-2 infected hamsters, 1 mg/kg s.c. daily, day 3): 94.3407 %, relative to day 0
- body weight, average ([2]; SARS-CoV-2 infected hamsters, 1 mg/kg s.c. daily, day 4): 93.4383 %, relative to day 0
- body weight, average ([2]; SARS-CoV-2 infected hamsters, 1 mg/kg s.c. daily, day 5): 93.2155 %, relative to day 0
- body weight, average ([2]; SARS-CoV-2 infected hamsters, 1 mg/kg s.c. daily, day 6): 93.1372 %, relative to day 0
- body weight, average ([2]; SARS-CoV-2 infected hamsters, 1 mg/kg s.c. daily, day 7): 94.5983 %, relative to day 0
- body weight, average ([2]; mock infected hamsters, 1 mg/kg s.c. daily, day 1): 97.4975 %, relative to day 0
- body weight, average ([2]; mock infected hamsters, 1 mg/kg s.c. daily, day 2): 98.3232 %, relative to day 0
- body weight, average ([2]; mock infected hamsters, 1 mg/kg s.c. daily, day 3): 98.7966 %, relative to day 0
- body weight, average ([2]; mock infected hamsters, 1 mg/kg s.c. daily, day 4): 99.2826 %, relative to day 0
- body weight, average ([2]; mock infected hamsters, 1 mg/kg s.c. daily, day 5): 100.017 %, relative to day 0
- body weight, average ([2]; mock infected hamsters, 1 mg/kg s.c. daily, day 6): 100.959 %, relative to day 0
- body weight, average ([2]; mock infected hamsters, 1 mg/kg s.c. daily, day 7): 101.896 %, relative to day 0
